Reference: the NIST ThermoML archive (doi:10.1016/j.jct.2016.08.006)

Assays:
[1] = molar heat capacity at constant pressure; details: 101.3 kPa, Liquid, Small sample (50 mg) DSC
[2] = molar heat capacity at constant pressure; xn = mol fraction of the nth substance listed; details: 101.3 kPa, Liquid, Small sample (50 mg) DSC, x2 = 0

CNCCN(C)C [N,N,N'-trimethylethylenediamine]
[1]
Details	molar heat capacity at constant pressure [J/K/mol]
303.2 K	258.3
308.2 K	260
313.2 K	262.7
318.2 K	265.3
323.2 K	269.2
328.2 K	272.7
333.2 K	276
338.2 K	278.9
343.2 K	281.3
348.2 K	283.4
353.2 K	286.6

NCCN1CCNCC1 [N-(β-aminoethyl)piperazine)]
[1]
Details	molar heat capacity at constant pressure [J/K/mol]
303.2 K	289.7
308.2 K	290.8
313.2 K	293.1
318.2 K	294.7
323.2 K	296.9
328.2 K	298.5
333.2 K	300.7
338.2 K	302.2
343.2 K	303.3
348.2 K	303.6
353.2 K	304.6

O [water] + CNCCN(C)C
[2]
Details	molar heat capacity at constant pressure [J/K/mol]
303.2 K	75.26
308.2 K	75.27
313.2 K	75.29
318.2 K	75.31
323.2 K	75.29
328.2 K	75.32
333.2 K	75.41
338.2 K	75.44
343.2 K	75.48
348.2 K	75.55
353.2 K	75.78

O [water]
[1]
Details	molar heat capacity at constant pressure [J/K/mol]
303.2 K	75.26
308.2 K	75.27
313.2 K	75.29
318.2 K	75.31
323.2 K	75.29
328.2 K	75.32
333.2 K	75.41
338.2 K	75.44
343.2 K	75.48
348.2 K	75.55
353.2 K	75.78

Cc1ccccc1 [toluene]
[1]
Details	molar heat capacity at constant pressure [J/K/mol]
303.2 K	159.1
308.2 K	160.4
313.2 K	161.6
318.2 K	163
323.2 K	164.1
328.2 K	165.5
333.2 K	167
338.2 K	168.6
343.2 K	170.4
348.2 K	172.8
353.2 K	175.1

O [water] + NCCN1CCNCC1
[2]
Details	molar heat capacity at constant pressure [J/K/mol]
303.2 K	75.26
308.2 K	75.27
313.2 K	75.29
318.2 K	75.31
323.2 K	75.29
328.2 K	75.32
333.2 K	75.41
338.2 K	75.44
343.2 K	75.48
348.2 K	75.55
353.2 K	75.78
